Data published in patent US20160264570A1, “METHOD OF BLOCKING TRANSMISSION OF MALARIAL PARASITE” (THE UNITED STATES OF AMERICA, AS REPRESENTED BY THE …, priority 2013, published 2016).
Read-outs that look alike come from different tables or passages of the source.

Assays:
[1] = tested on: Asexual parasites of P. falciparum strain 3D7; test: SYBR Green viability assay on asexual parasites; type: cell-based, Plasmodium falciparum; details: Plasmodium falciparum, read-out: Activity against asexual parasites EC50
[2] = tested on: P. falciparum strain 3D7 gametocytes; test: alamarBlue gametocyte viability assay, strain 3D7
[3] = tested on: HepG2 cells; test: Cytotoxicity in mammalian HepG2 cell line; details: for % Max response: HepG2; for IC50 (μM) in HepG2 cells / IC50 (μM) in HepG2: Inactive = no significant activity at highest tested concentration (46 μM)
[4] = Plasmodium falciparum, 3D7, read-out: Gametocytocidal activity EC50, Table 7
[5] = Plasmodium falciparum, 3D7, read-out: 3D7-IC50
[6] = Homo sapiens, HepG2, read-out: IC50 (μM) in HepG2 cells
[7] = read-out: Gametocyte IC50, mean of at least 3 independent experiments, P. falciparum 3D7 gametocyte
[8] = Plasmodium falciparum, 3D7, read-out: Gametocyte IC50
[9] = Plasmodium falciparum, 3D7, read-out: IC50 against gametocytes

Structure (SMILES) | EC50 ([1]; 3D7, Table 7) [µM] | EC50 [2, 4] [µM] | % Max response ([3]; Table 4) [%] | other results
Cc1ccc(-c2ccc3ncc4[nH]c(=O)n(-c5cccc(C(F)(F)F)c5)c4c3c2)cn1 | 0.059 | 0.443 |  | 
Nc1ccc(-c2ccc3ncc4[nH]c(=O)n(-c5cccc(C(F)(F)F)c5)c4c3c2)cc1 | 0.153 | 0.63 |  | 
CC(=O)Nc1ccc(-c2ccc3ncc4[nH]c(=O)n(-c5cccc(C(F)(F)F)c5)c4c3c2)cn1 | 0.035 | 0.123 |  | 
O=c1[nH]c2cnc3ccc(-c4ccc(O)cc4)cc3c2n1-c1cccc(C(F)(F)F)c1 | 0.398 | 1.42 |  | 
Nc1cccc(-c2ccc3ncc4[nH]c(=O)n(-c5cccc(C(F)(F)F)c5)c4c3c2)c1 | 0.137 | 0.531 |  | 
O=c1[nH]c2cnc3ccc(-c4ccncc4)cc3c2n1-c1cccc(C(F)(F)F)c1 | 0.211 | 1.24 |  | 
O=c1[nH]c2cnc3ccc(-c4ccc5[nH]cnc5c4)cc3c2n1-c1cccc(C(F)(F)F)c1 | 0.09 | 0.543 |  | 
CS(=O)(=O)c1ccc(-c2ccc3ncc4[nH]c(=O)n(-c5cccc(C(F)(F)F)c5)c4c3c2)cc1 | 0.622 | 2.05 |  | 
O=c1[nH]c2cnc3ccc(-c4cnc5ccccc5c4)cc3c2n1-c1cccc(C(F)(F)F)c1 | 5.79 | 212 |  | 
Nc1ncc(-c2ccc3ncc4[nH]c(=O)n(-c5cccc(C(F)(F)F)c5)c4c3c2)cn1 | 0.057 | 0.246 |  | 
Cn1c(=O)n(-c2cccc(C(F)(F)F)c2)c2c3cc(-c4cccc(N)c4)ccc3ncc21 | 0.016 | 0.069 |  | 
O=c1[nH]c2cnc3ccc(-c4cccnc4)cc3c2n1-c1cccc(C(F)(F)F)c1 | 1.4 | 5.57 |  | 
NC(=O)c1ccc(-c2ccc3ncc4[nH]c(=O)n(-c5cccc(C(F)(F)F)c5)c4c3c2)cc1 | 0.045 | 0.227 |  | 
Cn1c(=O)n(-c2cccc(C(F)(F)F)c2)c2c3cc(-c4ccc(N)cc4)ccc3ncc21 | 0.016 | 0.069 |  | 
Cn1c(=O)n(-c2cccc(C(F)(F)F)c2)c2c3cc(-c4ccc(C(N)=O)cc4)ccc3ncc21 | 0.02 | 0.109 |  | 
Cn1c(=O)n(-c2cccc(C(F)(F)F)c2)c2c3cc(-c4ccc(C(N)=O)nc4)ccc3ncc21 | 0.008 | 0.043 |  | 
Cn1c(=O)n(-c2cccc(C(F)(F)F)c2)c2c3cc(-c4cnc(N)nc4)ccc3ncc21 | 0.007 | 0.031 |  | 
Nc1ccc(-c2ccc3ncc4[nH]c(=O)n(-c5cccc(C(F)(F)F)c5)c4c3c2)cn1 | 0.105 | 0.088 |  | 
Cc1cc2cnc3ccc(-c4ccc(N)nc4)cc3c2n(-c2cccc(C(F)(F)F)c2)c1=O |  |  |  | EC50 ([1]; 3D7, Table 8): 0.205 µM; EC50 ([2]; Plasmodium falciparum, 3D7, read-out: Gametocytocidal activity EC50, Table 8): 0.046 µM
COc1cccc2c1C(=O)c1c(O)c3c(c(O)c1C2=O)C[C@@](O)(C(=O)CO)C[C@@H]3O[C@H]1C[C@H](N)[C@H](O)[C@H](C)O1 [Adriamycin] |  |  | −35 | IC50 (μM) in HepG2 cells ([3]; Table 4): Inactive; IC50 [2, 5]: 0.526 µM
CN(C)C/C=C/C(=O)Nc1cc2c(Nc3ccc(F)c(Cl)c3)ncnc2cc1O[C@H]1CCOC1 [Afatinib] |  |  | −100 | IC50 [3, 6]: 18.7 µM; IC50 [2, 5]: 0.935 µM
CO[C@H]1/C=C\C=C(/C)C(=O)NC2=CC(=O)C(NCCN(C)C)=C(C[C@@H](C)C[C@H](OC)[C@H](O)[C@@H](C)/C=C(\C)[C@@H]1OC(N)=O)C2=O [Alvespimycin] |  |  | −94 | IC50 [3, 6]: 0.118 µM

Structure (SMILES) | EC50 ([1]; 3D7, Table 7) [µM] | EC50 [2, 4] [µM] | % Max response ([3]; Table 4) [%] | other results
CO[C@H]1O[C@@H]2O[C@@]3(C)CC[C@H]4[C@H](C)CC[C@@H]([C@H]1C)[C@@]24OO3 [Artemether] |  |  | 7 | IC50 (μM) in HepG2 cells ([3]; Table 4): Inactive
C[C@@H]1CC[C@H]2[C@@H](C)C(=O)O[C@@H]3O[C@@]4(C)CC[C@@H]1[C@]32OO4 [Artemisinin, artemisinin] |  |  | 18 | IC50 (μM) in HepG2 cells ([3]; Table 4): Inactive; IC50 [2, 5]: 0.1 µM
C[C@H]1[C@@H](O)O[C@@H]2O[C@@]3(C)CC[C@H]4[C@H](C)CC[C@@H]1[C@@]24OO3 [Artenimol (DHA)] |  |  | 20 | % Max response ([3]; Table 2): 20%; IC50 (μM) in HepG2 ([3]; Table 2): Inactive; IC50 (μM) in HepG2 cells ([3]; Table 4): Inactive; IC50 [2, 7]: 0.077 µM
C[C@H]1[C@H](OC(=O)CCC(=O)O)O[C@@H]2O[C@@]3(C)CC[C@H]4[C@H](C)CC[C@@H]1[C@@]24OO3 [Artesunate] |  |  | 18 | IC50 (μM) in HepG2 cells ([3]; Table 4): Inactive
CC(C)C[C@H](NC(=O)[C@H](Cc1ccccc1)NC(=O)c1cnccn1)B(O)O [Bortezomib] |  |  | −82 | IC50 [3, 6]: 0.148 µM; IC50 [2, 5]: 0.1 µM
CC(C)C[C@H](NC(=O)[C@H](CCc1ccccc1)NC(=O)CN1CCOCC1)C(=O)N[C@@H](Cc1ccccc1)C(=O)N[C@@H](CC(C)C)C(=O)[C@@]1(C)CO1 [Carfilzomib] |  |  | −79 | IC50 [3, 6]: 1.18 µM
S=C(SSC(=S)N1CCCCC1)N1CCCCC1 [Dicyclopentamethylene-thiuram disulfide, reference compound] |  |  |  | IC50 [2, 8]: 0.274 µM
S=C(SSC(=S)N1CCCCC1)N1CCCCC1 [Dicyclopentamethylenethiram disulfide] |  |  | 0 | % Max response ([3]; Table 2): 0%; IC50 (μM) in HepG2 ([3]; Table 2): Inactive; IC50 (μM) in HepG2 cells ([3]; Table 4): Inactive
c1ccc2c(c1)[I+]c1ccccc1-2 [Diphenyleneiodonium] |  |  |  | IC50 [2, 5]: 0.1 µM
[O-][n+]1ccccc1SSc1cccc[n+]1[O-] [Dipyrithione] |  |  | −93 | IC50 [3, 6]: 10.8 µM; IC50 [2, 5]: 0.2 µM
CN(NC(=O)CC(=O)NN(C)C(=S)c1ccccc1)C(=S)c1ccccc1 [Elesclomol, elesclomol, reference compound] |  |  |  | IC50 [2, 8]: 0.006 µM
CO[C@@H]1[C@@H](OC)[C@H](C)[C@@](O)(CC(=O)O)O[C@H]1[C@H](C)[C@H]1O[C@@]2(CC[C@@](C)([C@H]3CC[C@@](C)([C@@H]4O[C@@H]([C@H]5O[C@](C)(O)[C@H](C)C[C@@H]5C)C[C@@H]4O[C@@H]4C[C@H](OC)[C@@H](OC)[C@H](C)O4)O3)O2)C[C@H](O)[C@H]1C [Maduramicin] |  |  |  | Emax ([3]; Homo sapiens, HepG2, read-out: % Max response): -42%; IC50 ([3]; Homo sapiens, HepG2, read-out: IC50 (μM) in HepG2): 37.2 µM; IC50 [3, 6]: 37.2 µM; IC50 [2, 8]: 0.047 µM; IC50 [2, 9]: 0.003 to 0.05 µM
OC(c1cc(C(F)(F)F)nc2c(C(F)(F)F)cccc12)C1CCCCN1 (centres unmarked) [Mefloquine, mefloquine] |  |  | −97 | IC50 [3, 6]: 29.6 µM
CCNC(=O)c1noc(-c2cc(C(C)C)c(O)cc2O)c1-c1ccc(CN2CCOCC2)cc1 [NVP-AUY922] |  |  | −88 | IC50 [3, 6]: 0.148 µM; IC50 [2, 9]: 0.003 to 0.05 µM
CC[C@@H](C(=O)O)[C@@H]1O[C@@H]([C@@H](C)[C@H](O)[C@H](C)C(=O)[C@H](CC)[C@H]2O[C@]3(C=C[C@@H](O)[C@]4(CC[C@@](C)([C@H]5CC[C@](O)(CC)[C@H](C)O5)O4)O3)[C@H](C)C[C@@H]2C)[C@@H](C)C[C@@H]1C [Narasin] |  |  | −98 | IC50 [3, 6]: 27 µM; IC50 [2, 9]: 0.003 to 0.05 µM
COC(=O)C[C@](O)(CCCC(C)(C)O)C(=O)O[C@@H]1C(OC)=C[C@]23CCCN2CCc2cc4c(cc2[C@H]13)OCO4 [Omacetaxine] |  |  | −27 | % Max response ([3]; Table 2): −27%; IC50 (μM) in HepG2 ([3]; Table 2): Curve not complete; IC50 (μM) in HepG2 cells ([3]; Table 4): Curve not complete; IC50 [2, 7]: 0.083 µM
O=C1C(=O)c2ncccc2-c2cccnc21 [Phanquinone] |  |  | 23 | IC50 (μM) in HepG2 cells ([3]; Table 4): Inactive; IC50 [2, 5]: 0.1 µM
COc1ccc(C[C@H](N)C(=O)N[C@H]2[C@@H](O)[C@H](n3cnc4c(N(C)C)ncnc43)O[C@@H]2CO)cc1 [Puromycin] |  |  | −71 | IC50 [3, 6]: 11.8 µM; IC50 [2, 5]: 1.05 µM
CN(C)C(=S)SSC(=S)N(C)C [Thiram] |  |  | 23 | IC50 (μM) in HepG2 cells ([3]; Table 4): Inactive
CC(=O)Nc1cccc(-n2c(=O)n(C3CC3)c(=O)c3c(Nc4ccc(I)cc4F)n(C)c(=O)c(C)c32)c1 [Trametinib] |  |  | 14 | IC50 (μM) in HepG2 cells ([3]; Table 4): Inactive
COCCn1c2c([n+](Cc3cnccn3)c1C)C(=O)c1ccccc1C2=O [YM155] |  |  | −92 | IC50 [3, 6]: 4.69 µM; IC50 [2, 5]: 0.372 µM
